# Measured values: patent US20160199354A1, “METHODS FOR OLMESARTAN DOSING BY AUC” (Autotelic LLC, priority 2015, published 2016)
# Key:
# [1] = parameters: species or system Korean healthy males; conditions: in vivo
# Procedure: Drug exposure as AUC was studied among Korean healthy males aged between 20 and 50 years in two clinical studies: (1) a randomized, open-label, multiple-dose, cross-over study of 36 subjects divided into 6 cohorts and treated over 3 periods (subjects were administered either 1 tablet of 40 mg olmesartan medoxomil, 1 tablet of 20 mg rosuvastatin calcium, or a 1 tablet each of both agents (fixed dosage composition, single dose form) orally every 24 hours for 7 days, with an 8-day washout period separating the individual treatment courses) and (2) a randomized, open-label, single-dose, cross-over study of 58 subjects divided into 2 cohorts and treated over 2 periods (Son H, Roh H, Lee D, Chang H, Kim J, Yun C, et al. Pharmacokinetics of rosuvastatin/olmesartan fixed-dose combination: a single-dose, randomized, open-label, 2-period crossover study in healthy Korean subjects. Clin Ther 2013; 35:915-22) (one tablet of ST-101, also known as olmesartan/rosuvastatin FDC, tablet of 40 mg olmesartan medoxomil/20 mg rosuvastatin calcium was administered once orally as the test drug, or 1 tablet each of 40 mg olmesartan medoxomil and 20 mg rosuvastatin calcium was co-administered once orally as the comparator; eligible subjects were randomly assigned to 2 groups (test arm vs comparator arm) in a 1:1 ratio; each subject received a single dose of the FDC or the comparator orally in a fasted state, with a 7-day washout period between the administrations.
# A total of 34 volunteers in study 1 and 54 volunteers in study 2 were evaluated for olmesartan pharmacokinetic (PK) analysis. For PK analyses, blood samples were collected at 0 (pre-dose), 0.5, 2, 2.5, 3, 4, 5, 6, 7, 8, 10, 12, 16, 24, 48 hour after dosing of olmesartan either as FDC or as single agent.
# FIG. 1 compares individual values of olmesartan AUC when dosed as either olmesartan single agent (OM) or olmesartan/rosuvastatin (OM/RC) fixed dose composition (FDC). […] The coefficient of variations were 29.95% and 24.42% for olmesartan single agent and OM/RC FDC, respectively. The tabulated summary of the data including Gaussian tests are shown below in Table 1.
# FIG. 6 illustrates the linear correlation between the first and second pharmacokinetic determinations (AUC) for olmesartan. The linear regression is described by the following equation: Y=0.9782*X. The p value of significant deviation from 0 is less than 0.0001.
# [2] = tested on: Korean subjects with hypertension associated with dyslipidemia; experiment: Phase 3 clinical study, variability of SBP and DBP reduction; assay type: in vivo, human (Korean subjects); conditions: once daily up to 8 weeks; olmesartan medoxomil 40 mg
# Procedure: Hypertension therapy effectiveness was evaluated by evaluating the variability of systolic blood pressure (SBP) and diastolic blood pressure (DBP) reduction following dosing with olmesartan single agent (OM) or a fixed dosage composition comprising olmesartan and rosuvastatin (OM/RC FDC). […] The study was a multi-site, randomized, double-blind, placebo-controlled, factorial, 4 arm, 8 week Phase 3 clinical study of Korean subjects with hypertension associated with dyslipidemia aged between 20 and 80 years. Following a 4-week therapeutic lifestyle-change period that included a washout period, eligible patients were randomized in a 2:1:1:1 ratio to receive either OM/RC FDC, olmesartan medoxomil 40 mg, rosuvastatin calcium 20 mg, or placebo, once daily, for up to 8 weeks. A total of 183 subjects were randomized (72 subjects in OM/RC FDC, 39 subjects in olmesartan medoxomil 40 mg, 38 subjects in rosuvastatin calcium 20 mg, and 34 subjects in placebo). Among the 183 randomized subjects, 181 subjects took the investigational drug (ST-101/OM/RC FDC), 162 subjects completed the study, and 21 of […] subjects were discontinued from the study. The SBP and DBP reduction was highly variable. FIG. 2 compares the variability of systolic blood pressure (SBP) reduction after dosing with olmesartan single agent (olmesartan) or olmesartan/rosuvastatin fixed dose combination (OM/RC FDC, ST-101). […]
# [3] = tested on: patients with hypertension; experiment: Dose response of blood pressure reduction, analysis of 21 published clinical studies; assay type: in vivo, human; conditions: olmesartan medoxomil 5 to 80 mg monotherapy, 21 clinical studies
# Procedure: PubMed database was searched to identify relevant scientific and review articles from June 2001 to June 2015 using the search terms olmesartan efficacy, response, effect/clinical trial. Reference lists of included articles were reviewed to locate additional references of interest. PD studies with olmesartan medoxomil dose range from 5 to 80 mg monotherapy were selected. PD response and demographic data from a total of 10,770 patients with hypertension in 21 clinical studies were included in the analysis (Oparil S, Williams D, Chrysant S G, Marbury T C, Neutel J. (2001). Comparative efficacy of olmesartan, losartan, valsartan, and irbesartan in the control of essential hypertension. J Clin Hypertens (Greenwich) 2001; 3(5):283-318; Püchler K, Laeis P, Stumpe K O. Blood pressure response, but not adverse event incidence, correlates with dose of angiotensin II antagonist. J Hypertens Suppl 2001 June; 19(1):S41-8; Neutel J M, Elliott W J, Izzo J L, Chen C L, Masonson H N. Antihypertensive efficacy of olmesartan medoxomil, a new angiotensin II receptor antagonist, as assessed by ambulatory blood pressure measurements. […] J Hum Hypertens 2002; 16(Suppl 2):S24-8; Brunner H R, Stumpe K O, Januszewicz A. Antihypertensive efficacy of olmesartan medoxomil and candesartan cilexetil assessed by 24-hour ambulatory blood pressure monitoring in patients with essential hypertension. […]
# [4] = parameters: species or system healthy subjects (Asian and non-Asian); conditions: in vivo
# From the text: PubMed database was searched to identify relevant scientific and review articles from May 2001 to June 2015 using the search term olmesartan PK. Reference lists of included articles were reviewed to locate additional references of interest. PK studies with single dose AUC of olmesartan medoxomil in healthy subjects were selected. Olmesartan medoxomil AUC from co-administration of olmesartan medoxomil with other drugs or FDC containing olmesartan medoxomil were also included if there was no known drug-drug interaction (DDI). The pharmacokinetic datasets for olmesartan were obtained from published clinical studies across Asian and non-Asian subjects with a dose range from 10 to 160 mg. More than 80% of the studies reported AUC in arithmetic mean. […] PK and demographic data from a total of 895 healthy subjects from 13 clinical studies were included in the final analysis Schwocho L R and Masonson H N. Pharmacokinetics of CS866, a new angiotensin II receptor block, in healthy subjects. J Clin Pharmacol 2001; 41:515-27; von Bergmann K, Laeis P, Pilchler K, Sudhop T, Schwocho L R, Gonzalez L. Olmesartan medoxomil: influence of age, renal and hepatic function on the PK of olmesartan medoxomil. […]
compound,measurement,setting,value
"CCCc1nc(C(C)(C)O)c(C(=O)OCc2oc(=O)oc2C)n1Cc1ccc(-c2ccccc2-c2nnn[nH]2)cc1 [OM Single Agent, olmesartan medoxomil]",slope of linear regression between first and second AUC determinations (Y=slope*X),[1],0.9782
same,coefficient of variation of olmesartan AUC,"[1]; po, 40 mg",29.95%
same,"olmesartan AUC, 25% Percentile","[1]; po, 40 mg",6317
same,"olmesartan AUC, 75% Percentile","[1]; po, 40 mg",8916
same,"olmesartan AUC, Maximum","[1]; po, 40 mg",17026
same,"olmesartan AUC, Mean","[1]; po, 40 mg",7908
same,"olmesartan AUC, Median","[1]; po, 40 mg",7450 ng·h/mL
same,"olmesartan AUC, Minimum","[1]; po, 40 mg",3899
same,coefficient of variation for DBP reduction,[2],79.25%
same,coefficient of variation for SBP reduction,[2],78.24%
same,relationship between DBP reduction and dose (regression analysis),[3],very shallow insignificant relationship
same,correlation between SBP reduction and dose (regression analysis),[3]; p=0.04,only weak correlation
same,AUC among Asian subjects versus non-Asian subjects,[4],comparable to AUC in non-Asian subjects at the same dose level
same,dependence of AUC on dose,[4],linear dose-dependent increase in AUC from 10 to 160 mg
